US9475817B2 (BRISTOL-MYERS SQUIBB COMPANY, priority 2012, dated 2016)

Key:
[1] = target: CK1δ (Homo sapiens (Human), UniProt P48730); test: CK1δ kinase assay (Caliper LabChip, fluoresceinated peptide substrate); type: biochemical; settings: 200 pM CK1δ, 50 μM ATP, 1.5 μM peptide substrate, 22 hours room temperature
Protocol: (§1) CK1ε and CK1δ Kinase Assays
(§2) The kinase assay was performed in V-bottom 384-well plates. […] The reaction was incubated at room temperature for 22 hours and terminated by adding 45 μl of 35 mM EDTA to each sample. […] Compounds were dissolved at 10 mM in dimethylsulfoxide (DMSO) and evaluated at eleven concentrations. IC50 values were derived by non-linear regression analysis.

[2] = target: CK1ε (Homo sapiens (Human), UniProt P49674); test: CK1ε kinase assay (Caliper LabChip, fluoresceinated peptide substrate); type: biochemical; settings: 200 pM CK1ε, 50 μM ATP, 1.5 μM peptide substrate, 22 hours room temperature
Chain of CK1ε (P49674 whole entry): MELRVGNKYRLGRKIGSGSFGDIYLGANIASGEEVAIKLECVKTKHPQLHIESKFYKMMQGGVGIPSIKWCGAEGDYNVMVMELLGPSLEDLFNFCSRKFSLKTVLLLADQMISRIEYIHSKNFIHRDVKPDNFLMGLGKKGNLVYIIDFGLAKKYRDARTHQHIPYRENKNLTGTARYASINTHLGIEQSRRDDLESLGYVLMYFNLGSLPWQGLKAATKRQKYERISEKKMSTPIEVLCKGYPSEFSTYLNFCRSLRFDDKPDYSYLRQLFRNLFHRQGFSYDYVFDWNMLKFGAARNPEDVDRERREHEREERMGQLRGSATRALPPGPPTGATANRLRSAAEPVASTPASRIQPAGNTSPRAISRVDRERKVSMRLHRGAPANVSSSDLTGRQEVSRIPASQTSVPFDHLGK
Protocol: as §1, §2

Chain of CK1δ (P48730 whole entry): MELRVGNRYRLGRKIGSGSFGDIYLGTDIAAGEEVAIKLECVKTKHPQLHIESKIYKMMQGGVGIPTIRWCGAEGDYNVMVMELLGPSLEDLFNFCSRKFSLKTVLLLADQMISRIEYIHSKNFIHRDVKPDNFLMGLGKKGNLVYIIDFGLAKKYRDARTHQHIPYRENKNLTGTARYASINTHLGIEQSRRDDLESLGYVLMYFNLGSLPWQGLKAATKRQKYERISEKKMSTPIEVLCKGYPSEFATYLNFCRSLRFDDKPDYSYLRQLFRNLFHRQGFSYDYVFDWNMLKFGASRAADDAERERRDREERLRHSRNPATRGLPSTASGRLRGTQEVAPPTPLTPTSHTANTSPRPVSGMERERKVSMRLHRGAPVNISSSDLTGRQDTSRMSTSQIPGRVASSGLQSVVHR

In the case of Cc1nc(-c2cccnc2)sc1C(=O)Nc1cn2nc(-c3c(-c4ccc(F)cc4)nn(C)c3C3CCN(CC(N)=O)CC3)ccc2n1 [Compound 178, N-(6-(5-(1-(2-Amino-2-oxoethyl)piperidin-4-yl)-3-(4-fluorophenyl)-1-methyl-1H-pyrazol-4-yl)imidazo[1,2-b]pyridazin-2-yl)-4-methyl-2-(pyridin-3-yl)thiazole-5-carboxamide], the IC50 [1] is reported as 0.2 nM and the IC50 [2] is reported as 1.3 nM.

Cc1nc(-c2ccncc2)sc1C(=O)Nc1cn2nc(-c3c(-c4ccc(F)cc4)nn(C)c3C3CCNCC3)ccc2n1 [Compound 179, N-(6-(3-(4-Fluorophenyl)-1-methyl-5-(piperidin-4-yl)-1H-pyrazol-4-yl)imidazo[1,2-b]pyridazin-2-yl)-4-methyl-2-(pyridin-4-yl)thiazole-5-carboxamide] gave an IC50 [1] of 1.4 nM and an IC50 [2] of 1.5 nM.

In the case of Cc1nc(-c2ccncc2)sc1C(=O)Nc1cn2nc(-c3c(-c4ccc(F)cc4)nn(C)c3C3CCN(C)CC3)ccc2n1 [Compound 180, N-(6-(3-(4-Fluorophenyl)-1-methyl-5-(1-methylpiperidin-4-yl)-1H-pyrazol-4-yl)imidazo[1,2-b]pyridazin-2-yl)-4-methyl-2-(pyridin-4-yl)thiazole-5-carboxamide], the IC50 [1] is reported as 2.1 nM and the IC50 [2] is reported as 7.1 nM.

Compound Cc1nc(-c2ccncc2)sc1C(=O)Nc1cn2nc(-c3c(-c4ccc(F)cc4)nn(C)c3C3CCN(CCC(F)(F)F)CC3)ccc2n1 [Compound 181, N-(6-(3-(4-fluorophenyl)-1-methyl-5-(1-(3,3,3-trifluoropropyl)piperidin-4-yl)-1H-pyrazol-4-yl)imidazo[1,2-b]pyridazin-2-yl)-4-methyl-2-(pyridin-4-yl)thiazole-5-carboxamide] has an IC50 [1] of 1.1 nM and an IC50 [2] of 14.3 nM.

Compound Cc1nc(-c2ccncc2)sc1C(=O)Nc1cn2nc(-c3c(-c4ccc(F)cc4)nn(C)c3C3CCN(Cc4ccon4)CC3)ccc2n1 [Compound 182, N-(6-(3-(4-fluorophenyl)-5-(1-(isoxazol-3-ylmethyl)piperidin-4-yl)-1-methyl-1H-pyrazol-4-yl)imidazo [1,2-b]pyridazin-2-yl)-4-methyl-2-(pyridin-4-yl)thiazole-5-carboxamide] has an IC50 [1] of 1.7 nM and an IC50 [2] of 0.9 nM.

Cc1nc(-c2ccncc2)sc1C(=O)Nc1cn2nc(-c3c(-c4ccc(F)cc4)nn(C)c3C3CCN(CCC#N)CC3)ccc2n1 [Compound 183, N-(6-(5-(1-(2-Cyanoethyl)piperidin-4-yl)-3-(4-fluorophenyl)-1-methyl-1H-pyrazol-4-yl)imidazo[1,2-b]pyridazin-2-yl)-4-methyl-2-(pyridin-4-yl)thiazole-5-carboxamide] showed an IC50 [1] of 0.4 nM and an IC50 [2] of 2.4 nM.

Cc1nc(-c2ccncc2)sc1C(=O)Nc1cn2nc(-c3c(-c4ccc(F)cc4)nn(C)c3C3CCN(CC(N)=O)CC3)ccc2n1 [Compound 184, N-(6-(5-(1-(2-Amino-2-oxoethyl)piperidin-4-yl)-3-(4-fluorophenyl)-1-methyl-1H-pyrazol-4-yl)imidazo[1,2-b]pyridazin-2-yl)-4-methyl-2-(pyridin-4-yl)thiazole-5-carboxamide] was tested, and the IC50 [1] was 0.3 nM and the IC50 [2] was 1.2 nM.

For Cn1cc(-c2ccc3nc(Nc4ncccn4)cn3n2)c(-c2ccc(F)cc2)n1 [Compound 185, 6-(3-(4-Fluorophenyl)-1-methyl-1H-pyrazol-4-yl)-N-(pyrimidin-2-yl)imidazo[1,2-b]pyridazin-2-amine], the IC50 [1] was 16 nM and the IC50 [2] was 48 nM.

For Cn1cc(-c2ccc3nc(NC(=O)Nc4ccccc4)cn3n2)c(-c2ccc(F)cc2)n1 [Compound 186, 1-(6-(3-(4-Fluorophenyl)-1-methyl-1H-pyrazol-4-yl)imidazo[1,2-b]pyridazin-2-yl)-3-phenylurea], the IC50 [1] was 14.6 nM and the IC50 [2] was 114 nM.

With Cn1cc(-c2ccc3nc(NC(=O)OCc4ccccc4)cn3n2)c(-c2ccc(F)cc2)n1 [Compound 187, Benzyl 6-(3-(4-fluorophenyl)-1-methyl-1H-pyrazol-4-yl)imidazo[1,2-b]pyridazin-2-ylcarbamate] the IC50 [1] was 51.5 nM and the IC50 [2] was over 2000 nM.
